Patent EP4759148A1, “ADJUSTMENT OF CIRCADIAN RHYTHM” (MEIJI CO., LTD, priority 2023, dated 2025)

Key:
per2 reporter cells = assay: circadian rhythm assay (luciferase reporter assay) using per2 reporter cells; type: cell-based, human; conditions: 5 mM fumaric acid
Method: Referring to the "Cell-based circadian assays" described in the article by H. Oike et al. (NPL 1), a circadian rhythm assay (luciferase reporter assay) using per2 reporter cells was performed to evaluate the action of fumaric acid on circadian rhythms.
U-2OS cells were transfected with a vector prepared by incorporating the per2 promoter region into a NanoLuc (registered trademark) luciferase vector by using transfection reagent 1 according to a standard method. After about 24 hours, the medium was replaced, and dexamethasone was added at a final concentration of 100 nM to synchronize the cells. After two hours, 1% substrate (Endurazine) was added, and the luminescence intensity of luciferase was measured every 30 minutes using a plate reader equipped with CO2 control and temperature control.
After 25 days, formed colonies were collected and seeded in a 96-well plate (1 × 10^3 cells/well). After three days, the luminescence intensity of luciferase was measured every 60 minutes using a plate reader with CO^2 control and temperature control, in the same manner as described above.
Subsequently, cell lines with minimal variation in circadian rhythm cycle and stable periodicity were selected. These selected cell lines, referred to as "per2 reporter cells" were used in the following experiments.
The prepared per2 reporter cells were seeded in a 96-well plate at a density of 5 × 10^3 cells/well. The medium used was high-glucose medium 1 supplemented with 10% fetal bovine serum (FBS), 1% penicillin-streptomycin, and hygromycin, and the cells were cultured at 37°C under 5% CO2 conditions.
After two days from culture, 100 nM dexamethasone was added, and the cells were treated for 2 hours, followed by adding a 1% substrate (Endurazine). Subsequently, the luminescence intensity of luciferase was measured every 12 minutes. For the measurement, high-glucose medium 2 supplemented with 5% FBS and 1% penicillin-streptomycin was used.
Subsequently, fumaric acid was added to the measurement medium to achieve a final concentration of 5 mM, and the luminescence intensity of luciferase was measured over time using a long-term real-time luminescence measurement system for cultured cells (WSL-1565, Kronos HT) to evaluate changes in circadian rhythm. For a control, the luminescence intensity of luciferase in per2 reporter cells cultured in measurement medium without fumaric acid was measured over time in the same manner.
In the luminescence intensity rhythms, valleys were represented by T and peaks by P, and they were labeled as P1, T1, P2, and T2 in order of appearance. Since P1 was unstable in rhythm, the circadian rhythm of per2 reporter cells was evaluated based on the phases of the valleys (T1 and T2) and peak (P2) after T1.

GPR41 gene = assay: induction of GPR41 gene expression in Caco-2 cells (real-time PCR); type: cell-based, human; conditions: 5 mM fumaric acid, 60 minutes, differentiated Caco-2 cells; Fig. 2
Method: Caco-2 cells were seeded in a 24-well plate at 2 × 10^5 cells/well. After 3 weeks of differentiation induction, 5 mM fumaric acid was added, and cells were collected 60 minutes later. RNA was extracted, and GPR41 gene expression levels were measured by real-time PCR.

[1] = fumaric acid-added cells versus control

Compound: O=C(O)/C=C/C(=O)O [Fumaric Acid, fumaric acid]
- circadian rhythm cycle, T2-T1 (per2 reporter cells; calculated from the phase difference between T1 and T2, control 29.6): 26.4 h
- phase of circadian rhythm, T1 (per2 reporter cells; first valley (T1) of luciferase luminescence rhythm, U-2OS per2 reporter cells, control 22.4): 22.2 h
- Difference in Cycle, T2-T1 (per2 reporter cells; [1]): -3.2 h
- Difference in Phase, P2 (per2 reporter cells; [1]): -0.6 h
- Difference in Phase, T1 (per2 reporter cells; [1]): -0.2 h
- Difference in Phase, T2 (per2 reporter cells; [1]): -3.4 h
- phase of circadian rhythm, P2 (per2 reporter cells; peak P2 of luciferase luminescence rhythm, control 34.8): 34.2 h
- phase of circadian rhythm, T2 (per2 reporter cells; second valley (T2) of luciferase luminescence rhythm, control 52.0): 48.6 h
- expression level of the GPR41 gene (GPR41 gene): increased
